The values that follow come from patent US9822069B2, “Urea derivative or pharmacologically acceptable salt thereof” (KYORIN PHARMACEUTICAL CO. LTD., priority 2013, dated 2017).

Usually EC50 stands for the concentration that produces a half-maximal response.

This assay has as its target T1, human FPRL1 (Homo sapiens, UniProt P25090).
T1 construct: expressed in transfected cells; host or cells: HEK293 (JCRB9068, NIBIO), transient transfection with pCMV-script vectors using Lipofectamine 2000
T1 sequence (P25090 1-351): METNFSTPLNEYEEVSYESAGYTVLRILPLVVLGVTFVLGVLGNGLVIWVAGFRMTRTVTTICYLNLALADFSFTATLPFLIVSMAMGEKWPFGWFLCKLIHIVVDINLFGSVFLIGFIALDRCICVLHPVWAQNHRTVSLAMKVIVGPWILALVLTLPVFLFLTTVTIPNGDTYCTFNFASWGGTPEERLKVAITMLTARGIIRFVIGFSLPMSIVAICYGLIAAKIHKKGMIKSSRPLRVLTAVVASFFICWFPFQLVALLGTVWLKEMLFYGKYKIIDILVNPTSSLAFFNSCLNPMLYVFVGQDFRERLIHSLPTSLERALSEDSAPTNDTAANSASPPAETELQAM
Briefly: Measurement test of agonist activity on human FPRL1 (test of calcium mobilization in cell, HEK293 with human FPRL1 and Gα15 expression vectors). The assay is classed as cell-based. The following applies: calcium mobilization in HEK293 cells with human FPRL1 and Gα15 expression vectors. The source says:
Measurement Test of Agonist Activity on Human FPRL1
(1-1) Construction of Human FPRL1 Expression Vector
Human FPRL (SEQ ID NO: 3) was amplified in a PCR reaction from cDNA derived from a monocytic leukemia cell line THP-1 (TIB-202, ATCC) as a template using a forward primer shown in SEQ ID NO: 1, a reverse primer shown in SEQ ID NO: 2, and KOD-plus-ver. 2 (KOD-211, TOYOBO CO., LTD.). The amplified PCR product and pCMV-script vector (212220, STRATAGENE) were digested with Hind III (1060A, Takara Bio Inc.) and XhoI (1094A, Takara Bio Inc.), and the resultant digest was ligated with Ligation high ver. 2 (LGK-201, TOYOBO CO., LTD.). The ligation product was transformed into DH5α (DNA-901, TOYOBO CO., LTD.), cultured on a 100 μg/mL kanamycin-containing LB medium, and purified with HiSpeed Plasmid Maxi Kit (12662, QIAGEN).
(1-2) Construction of Human Gα15 Expression Vector
Human Gα15 (SEQ ID NO: 6) was amplified in a PCR reaction from cDNA derived from a myeloid leukemia cell line HL-60 (CCL-240, ATCC) as a template using a forward primer shown in SEQ ID NO: 4, a reverse primer shown in SEQ ID NO: 5, and KOD-plus-ver. 2. The amplified PCR product and pCMV-script vector were digested with Hind III and XhoI, and the resultant digest was ligated with Ligation high ver. 2. The ligation product was transformed into DH5α, cultured on a 100 μg/mL kanamycin-containing LB medium, and purified with HiSpeed Plasmid Maxi Kit.
(2-1) Method for Culturing and Subculturing HEK293
HEK293 (JCRB9068, NIBIO) was cultured in an incubator at 5% CO2 and 37° C. using DMEM (11885-092, GIBCO) containing 10% FBS and 1× Penicillin-Streptomycin (15140-122, GIBCO). Subculture was carried out as followings: The cells that reached 80 to 90% confluency were washed with PBS(−), separated using 0.25% Trypsin-EDTA (25200-072, GIBCO), centrifuged, re-suspended in a fresh medium, and then seeded in Collagen Type 1 Coated dish (4020-010, IWAKI) at a split ratio of 1:8 (cultured for 3 days).
(2-2) Introduction of Human FPRL1 and Gα15 Expression Vectors
HEK293 that reached 80 to 90% confluency was washed with PBS(−), separated using 0.25% Trypsin-EDTA, centrifuged, and re-suspended in a fresh medium excluding 1× Penicillin-Streptomycin. The cells were inoculated in a Collagen Type 1 coated 6-well plate (4810-010, IWAKI) to 5×10^5 cells/2.5 mL/well and cultured overnight. On the next day, human FPRL1 and Gα15 expression vectors were introduced using Lipofectamine 2000 transfection reagent (11668-019, Life technologies). First, the human FPRL1 and Gα15 expression vectors were diluted with Opti-MEM I Reduced Serum Medium (31985-070, GIBCO) to 2 μg/250 μL/well and Lipofectamine 2000 transfection reagent was diluted with Opti-MEM I Reduced Serum Medium to be 4 μL/250 μL/well. The vectors and reagent were softly diffused, and incubated at room temperature for 5 minutes. The vector solution was mixed with Lipofectamine 2000 transfection reagent in equal amounts. In order to form a composite of the vectors and Lipofectamine 2000 transfection reagent, the mixture was incubated at room temperature for 20 minutes, and added at 500 μL/well to the medium of inoculated cells. The treated cells were cultured for 24 hours, inoculated in Poly-D-Lysine coated 96-well plate (356640, BD Biosciences) at a cell density of 7×10^4 cells/100 μL/well, and cultured for another 24 hours. The resultant cells were used in a measurement test of calcium mobilization in the cells.
(3) Evaluation of Agonist Activity on Human FPRL1 (Test of Calcium Mobilization in Cell)
An appropriate amount of each test compound was first weighed, and dissolved to 10^−2 M by addition of dimethyl sulfoxide (DMSO). […]
For orientation: A change in cytosolic calcium serves as a functional read-out for many receptors and channels.
On to `COc1ccc([C@@H]2CNC(=O)[C@H]2NC(=O)Nc2ccc(F)c(F)c2)cc1` (single isomer, unassigned) [EXAMPLE 1-3, (-)-1-(3,4-difluorophenyl)-3-[(3S*,4R*)-4-(4-methoxyphenyl)-2-oxopyrrolidin-3-yl]urea], for which the EC50 is 2.57 nM.

As to `COc1cc(F)c([C@@H]2CN(CC(=O)O)C(=O)[C@H]2NC(=O)Nc2ccc(F)cc2)c(F)c1` (relative stereo) [Example 16-2, (−)-2-{(3S*,4R*)-4-(2,6-difluoro-4-methoxyphenyl)-3-[3-(4-fluorophenyl)ureido]-2-oxopyrrolidin-1-yl}acetic acid], the EC50 was determined as 0.49 nM.

As to `COc1cc(F)c([C@@H]2CNC(=O)[C@H]2NC(=O)Nc2cccc(F)c2)c(F)c1` (relative stereo) [Example 7-8, (−)-1-[(3S*,4R*)-4-(2,6-difluoro-4-methoxyphenyl)-2-oxopyrrolidin-3-yl]-3-(3-fluorophenyl)urea], the EC50 came to 0.95 nM.

`CNC(=O)C(C)N1C[C@@H](c2ccc(OC)cc2)[C@H](NC(=O)Nc2ccc(F)cc2)C1=O` (single isomer, unassigned; isomer b) [Example 21-1, (−)-2-{(3S*,4R*)-3-[3-(4-Fluorophenyl)ureido]-4-(4-methoxyphenyl)-2-oxopyrrolidin-1-yl}-N-methylpropionamide (isomer B)]: the EC50 is 0.04 nM.

Take `COc1cc(F)c([C@@H]2CN(OC)C(=O)[C@H]2NC(=O)Nc2ccc(F)cc2)c(F)c1` (single isomer, unassigned) [EXAMPLE 27-2, (−)-1-[(3S*,4R*)-4-(2,6-Difluoro-4-methoxyphenyl)-1-methoxy-2-oxopyrrolidin-3-yl]-3-(4-fluorophenyl)urea]: the EC50 was found to be 0.1 nM.

In the case of `COc1cc(F)c([C@@H]2CNC(=O)[C@H]2NC(=O)Nc2ccc(C(F)(F)F)cc2)c(F)c1` (relative stereo) [Example 1-63, (−)-1-[(3S*,4R*)-4-(2,6-difluoro-4-methoxyphenyl)-2-oxopyrrolidin-3-yl]-3-[4-(trifluoromethyl)phenyl]urea], the EC50 stood at 0.92 nM.

Turning to `COc1ccc([C@@H]2CN(CCO)C(=O)[C@H]2NC(=O)Nc2ccc(Cl)cc2)cc1` (single isomer, unassigned) [Example 15-1B, (+)-trans-1-(4-Chlorophenyl)-3-[1-(2-hydroxyethyl)-4-(4-methoxyphenyl)-2-oxopyrrolidin-3-yl]urea], the half-maximal effective concentration (EC50) came to 1.99 nM.

Turning to `COc1cc(F)c([C@@H]2CN(CCO)C(=O)[C@H]2NC(=O)Nc2ccc(Cl)nc2)c(F)c1` (relative stereo) [Example 24-9, (−)-1-(6-chloropyridin-3-yl)-3-[(3S*,4R*)-4-(2,6-difluoro-4-methoxyphenyl)-1-(2-hydroxyethyl)-2-oxopyrrolidin-3-yl]urea], the EC50 is 0.88 nM.

In the case of `COc1cc(F)c([C@@H]2CN(CCO)C(=O)[C@H]2NC(=O)Nc2ccc(C#N)cc2)c(F)c1` (relative stereo) [Example 24-8, (−)-1-(4-cyanophenyl)-3-[(3S*,4R*)-4-(2,6-difluoro-4-methoxyphenyl)-1-(2-hydroxyethyl)-2-oxopyrrolidin-3-yl]urea], the EC50 was 0.39 nM.

For the molecule `C#Cc1ccc(NC(=O)N[C@@H]2C(=O)NC[C@H]2c2c(F)cc(OC)cc2F)cc1` (single isomer, unassigned) [EXAMPLE 28-4, (−)-1-[(3S*,4R*)-4-(2,6-Difluoro-4-methoxyphenyl)-2-oxopyrrolidin-3-yl]-3-(4-ethynylphenyl) urea], the EC50 was found to be 1.64 nM.

As to `O=C(Nc1ccc(F)cc1)N[C@@H]1C(=O)NC[C@H]1c1cc2ccoc2cc1F` (relative stereo) [Example 1-77, (−)-1-[(3S*,4R*)-4-(6-fluorobenzofuran-5-yl)-2-oxopyrrolidin-3-yl]-3-(4-fluorophenyl)urea], the EC50 was found to be 5.2 nM.

For the molecule `CNc1cc(F)c([C@@H]2CNC(=O)[C@H]2NC(=O)Nc2ccc(F)cc2)c(F)c1` (single isomer, unassigned) [EXAMPLE 28-5, (−)-1-{(3S*,4R*)-4-[2,6-Difluoro-4-(methylamino)phenyl]-2-oxopyrrolidin-3-yl}-3-(4-fluorophenyl) urea], the EC50 stood at 1.42 nM.
